Columns and labels:
[1] = molecular target: T1, hERG potassium ion channel (Homo sapiens, UniProt Q12809); test: hERG test (whole cell model); type: cell-based; conditions: for Ratio (%): n=3
T1 construct: host or cells: HEK-293
Description: The whole cell model hERG test was performed with compound 77 of the present invention as a representative example, 30 uM Quinidine (Sigma) was used as a positive control.
Procedure: hERG potassium ion channel HEK-293 cells (Krius Biology) were over-expressed, and cultured at a 37° C., 5% CO2 incubator. The culture medium was DMEM supplemented with 15% fetal bovine serum and 1% penicillin-streptomycin. The stably transfected cells were inoculated to slides, with a cell density of less than 50%, and cultured overnight. The experimental cells were transferred to an approximately 1 mL bath tank embedded in an inverted microscope platform (Diaphot, Nikon), and the extracellular fluid was perfused at a perfusion rate of 2.7 mL/min. The experiment could be started after stabilization for 5 minutes and precipitation of cells. Membrane current was recorded by HEKAEPC-10 patch clamp amplifier and […] acquisition system (HEKA Instruments Inc., D-67466 Lambrecht/Pfalz Germany). All experiments were completed at room temperature (22-24° C.). During the experiment, a P-97 microelectrode control apparatus (Sutter Instrument Company, One Digital Drive, Novato, Calif. 94949) was used to […] the electrodes (BF150-110-10). The inner diameter of the electrode was 1-1.5 mm, and the inlet resistance after filling with the liquid was 2-4 MQ. Electrophysiological stimulation of the hERG potassium channel: firstly, the membrane voltage was clamped at −80 mV, and cells were given continuous stimulation of 2 s, +20 mV voltage, to activate hERG potassium ion channel and repolarization to −50 mV for 5 s, to generate outward tail current. The stimulation frequency was once every 15 seconds. The current value was the peak value of tail current. By measuring the maximum current value of the treatment group and the control group, the ratio of the maximum current value of the treatment group to the maximum current value of the control group (Mean±SE) was calculated, to evaluate the effect of the test compounds on the hERG potassium ion channel under the test concentration. Statistics and analysis of experimental data were performed by Origin 8.5 (OriginLab Corporation, Northampton, Mass.).

[2] = molecular target: T2, CYP2B6 (Homo sapiens, UniProt P20813); test: P450 enzyme inhibition, CYP2B6; type: in vitro ADME; conditions: human liver microsomes
T2 construct: human liver microsomes (BD Gentest) (0.5 mg/mL); tissue BD Gentest; host or cells: human liver microsomes
T2 sequence (P20813 1-491): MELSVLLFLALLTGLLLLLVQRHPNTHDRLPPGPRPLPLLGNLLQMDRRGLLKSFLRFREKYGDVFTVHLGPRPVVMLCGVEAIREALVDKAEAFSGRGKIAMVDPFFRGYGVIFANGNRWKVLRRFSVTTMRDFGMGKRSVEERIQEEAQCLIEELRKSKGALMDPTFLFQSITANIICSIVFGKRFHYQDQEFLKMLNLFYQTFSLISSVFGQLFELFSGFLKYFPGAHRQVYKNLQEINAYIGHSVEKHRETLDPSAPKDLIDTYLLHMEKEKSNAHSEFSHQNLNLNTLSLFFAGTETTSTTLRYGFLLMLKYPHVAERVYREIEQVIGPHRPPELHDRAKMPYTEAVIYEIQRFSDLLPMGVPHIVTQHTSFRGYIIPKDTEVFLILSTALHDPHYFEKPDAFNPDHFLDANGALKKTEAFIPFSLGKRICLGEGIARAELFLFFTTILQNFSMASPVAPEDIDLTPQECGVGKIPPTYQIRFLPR
Description: Eight cytochrome p450 enzyme inhibition reactions of human liver microsomes were performed using compound 77 of the present invention as a representative example.
The main reaction systems and processes: in 37° C. water bath, the test compounds (7 concentrations, 0, 0.25, 0.5, 5, 10, 25, and 50 uM; the final methanol concentration was 1% in the system), human liver microsomes (BD Gentest) (0.5 mg/mL) and reducing coenzyme II (Roche 10621706001) (1 mg/mL) and the corresponding cytochrome p450 enzyme probe substrate were co-incubated for 5 to 20 minutes. Among them, (1) the probe substrate for CYP1A2 was Phenacetin ([…]) (Sigma), and the selective inhibitor alpha-naphthoflavone (2 uM) (Sigma) was for parallel detection as positive control, and they were incubated for 20 minutes. (2) The probe substrate for CYP2b6 was Bupropion (40 uM) (Sigma) and the selective inhibitor Ticlopidine (10 uM) (Sigma) was for parallel detection as positive control, and they were incubated for 20 minutes. (3) The probe substrate of CYP2C8 was Amodiaquine (1 uM) (Sigma), and the selective inhibitor Montelukast (10 uM) (Sigma) was for parallel detection as positive control, and they were incubated for 20 minutes. (4) The probe substrate for CYP2C9 was Diclofenac (2.5 uM) (Sigma), and the selective inhibitor Sulphaphenazole (10 uM) (Sigma) was for parallel detection as positive control, and they were incubated for 20 minutes. (5) The probe substrate for CYP2C19 was Mephenytoin (40 uM) (Sigma), and the selective inhibitor Ticlopidine (10 uM) (Sigma) was for parallel detection as positive control, and they were incubated for 20 minutes. (6) The probe substrate for CYP2D6 was Dextromethorphan (5 uM) (Sigma), and the selective inhibitor Quinidine (10 uM) (Sigma) was for parallel detection as positive control, and they were incubated for 20 minutes. (7) The probe substrates for CYP3A4-T and CYP3A4-M were Testosterone (5 uM) (Sigma) and Midazolam (5 uM) (Sigma), respectively, and the selective inhibitor was Ketoconazole (1 uM) (Sigma), they were detected in parallel as positive control, and incubated for 5 minutes. The reaction system was quenched by adding methanol containing the corresponding internal standard. The internal standard compound was Tolbutamide (Sigma). The concentration of the corresponding metabolites was determined by LC/MS/MS. For the data analysis, the decrease in peak area of the metabolite of the sample after addition of compound 77 relative to the peak area of the metabolite of the solvent control sample was used to calculate the IC50 (concentration of the test substance at 50% inhibition). The percentages of peak areas of metabolites of CYP1A2, CYP2B6, CYP2C8, CYP2C9, 15CYP2C19, CYP2D6, CYP3A4-T, and CYP3A4-M probe substrates after addition of different concentrations of compound 77 and selective inhibitors relative to the solvent control peak areas were shown in the Table 7.

T1 sequence (Q12809 whole entry): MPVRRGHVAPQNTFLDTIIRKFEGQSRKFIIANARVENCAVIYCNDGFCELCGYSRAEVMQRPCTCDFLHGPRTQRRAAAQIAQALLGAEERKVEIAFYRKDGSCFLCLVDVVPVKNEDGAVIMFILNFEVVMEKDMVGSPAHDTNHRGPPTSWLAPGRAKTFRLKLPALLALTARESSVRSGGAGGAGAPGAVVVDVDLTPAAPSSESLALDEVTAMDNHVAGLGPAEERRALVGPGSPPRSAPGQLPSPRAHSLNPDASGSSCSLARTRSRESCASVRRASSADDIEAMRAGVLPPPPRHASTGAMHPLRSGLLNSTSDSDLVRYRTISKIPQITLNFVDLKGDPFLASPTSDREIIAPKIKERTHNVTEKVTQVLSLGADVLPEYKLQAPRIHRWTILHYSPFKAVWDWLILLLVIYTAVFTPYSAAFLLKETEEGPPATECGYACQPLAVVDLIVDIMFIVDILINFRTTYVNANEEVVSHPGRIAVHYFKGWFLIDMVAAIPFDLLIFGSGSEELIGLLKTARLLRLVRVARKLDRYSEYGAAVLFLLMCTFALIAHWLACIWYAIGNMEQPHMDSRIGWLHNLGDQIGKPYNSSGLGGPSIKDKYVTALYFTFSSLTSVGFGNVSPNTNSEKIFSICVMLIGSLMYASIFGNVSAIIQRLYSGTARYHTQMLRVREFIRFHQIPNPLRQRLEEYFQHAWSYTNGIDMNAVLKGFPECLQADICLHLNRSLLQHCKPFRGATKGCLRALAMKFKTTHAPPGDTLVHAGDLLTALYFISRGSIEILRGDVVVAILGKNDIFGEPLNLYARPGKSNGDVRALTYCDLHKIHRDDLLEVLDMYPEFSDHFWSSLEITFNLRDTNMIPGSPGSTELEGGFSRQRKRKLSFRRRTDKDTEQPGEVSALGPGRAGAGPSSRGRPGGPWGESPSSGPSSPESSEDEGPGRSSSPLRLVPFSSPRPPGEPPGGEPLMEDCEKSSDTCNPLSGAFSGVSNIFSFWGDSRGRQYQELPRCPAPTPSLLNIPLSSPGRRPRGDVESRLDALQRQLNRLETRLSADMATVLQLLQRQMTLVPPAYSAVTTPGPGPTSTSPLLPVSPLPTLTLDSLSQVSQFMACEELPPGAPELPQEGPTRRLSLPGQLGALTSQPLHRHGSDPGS

COCCOc1ccc2c(c1)ncn2-c1ccc(NC(=O)Nc2cc(C(C)(C)C)n[nH]2)cc1 [Compound 77, 1-(5-tert-butyl-2H-pyrazol-3-yl)-3-{4-[5-(2-methoxyl-ethoxyl)-benzimidazol-1-yl]-phenyl}-urea]
Ratio (%) ([1]; Concentration 0.3 uM): 94.96% | Ratio (%) ([1]; Concentration 1 uM): 86.71% | Ratio (%) ([1]; Concentration 3 uM): 75.85% | Ratio (%) ([1]; Concentration 10 uM): 53.71% | Ratio (%) ([1]; Concentration 30 uM): 37.47% | blocking effect on the hERG potassium ion channel ([1]; within the range of test concentrations): a certain blocking effect | CYP2B6 Remaining % ([2]; Concentration 0.25 uM): 106.1% | CYP2B6 Remaining % ([2]; Concentration 0.5 uM): 109.6% | CYP2B6 Remaining % ([2]; Concentration 5 uM): 100.4% | CYP2B6 Remaining % ([2]; Concentration 10 uM): 90.1% | CYP2B6 Remaining % ([2]; Concentration 25 uM): 64.6% | CYP2B6 Remaining % ([2]; Concentration 50 uM): 40.1% | IC50 ([2]; read-out: half-inhibitory concentration (IC50) of CYP2B6): 39 µM
